Measurements from patent US20240246981A1, “[…] DERIVATIVES AS INHIBITORS OF […]-PEPTIDE CYCLOTRANSFERASE AND […]-PEPTIDE CYCLOTRANSFERASE LIKE PROTEIN” (Boehringer Ingelheim International GmbH, priority 2022, published 2024).
Where two headings read alike, the source gives them in different places.

Columns and labels:
[1] = test system: SIRPα signalling induced by Raji cells; test: Assay B: SIRPα signalling assay using Raji cells; assay type: cell-based, human; settings: Homo sapiens
Experimental: Bioassay reagent 1 of the PathHunter Bioassay detection kit (DiscoverX 93-0001) was added to each well of the plate using a multichannel pipette followed by a 15 min incubation at room temperature. Afterwards bioassay reagent 2 was added followed by 60 min incubation at room temperature (incubation in the dark).
(§1) The analysis of the data was performed using the luminescence signal generated by beta-galactosidase in the PathHunter reporter cell line. The luminescence measurement was done using a Pherastar Multi-Mode Reader.

[2] = test system: SIRPα signalling induced by A549 cells; test: Assay B: SIRPα signalling assay using A549 cells; assay type: cell-based, human; settings: Homo sapiens
Experimental: Two cell types are independently used: the Raji cell line (lymphoblastlike human cell line derived from B lymphocytes from a Burkitt's lymphoma patient in 1963) and A549 cells (adenocarcinomic human alveolar basal epithelial cells).
Test compounds were dissolved in 100% DMSO and serially diluted into a white 384-well microtiter cell culture plate (PerkinElmer #60076780 in case of Raji assay; PDL-coated plates Greiner #781945 in case of A549 assay). 5000 Raji cells (ATCC #CC86) or 5000 A549 cells (ATCC #CCL-185) in Assay Complete Cell Plating reagent 30 (DiscoverX 93-0563R30B) were added per well. The assay plate was incubated for 48 h at 37° C., 95% humidity and 5% CO2. 15000 reporter cells (Jurkat PathHunter SIRPα V1, DiscoverX #93-1135C19) were added to each well, and the plate was incubated for 5 h at 37° C., 95% humidity and 5% CO2. Bioassay reagent 1 of the PathHunter Bioassay detection kit (DiscoverX 93-0001) was added to each well of the plate using a multichannel pipette followed by a 15 min incubation at room temperature. Afterwards bioassay reagent 2 was added followed by 60 min incubation at room temperature (incubation in the dark).
as §1, with “Reader. Dose-response curves & IC50 data were calculated with 4-parameter sigmoidal dose response formula.” for “Reader.”

[3] = Assay C: permeability in CACO-2 cells; assay type: in vitro ADME; settings: human, pH 7.2; for Papp A→B at 2 h / Papp A→B: Caco-2, apical to basolateral; for efflux ratio at 2 h / efflux ratio: Caco-2
Experimental: Compounds are dissolved in appropriate solvent (like DMSO, 1-20 mM stock solutions). […] The transport solution (TL) is applied to the apical or basolateral donor side for measuring A-B or B-A permeability (3 filter replicates), respectively. Samples are collected at the start and end of experiment from the donor and at various time intervals for up to 2 hours also from the receiver side for concentration measurement by HPLC-MS/MS or scintillation counting. Sampled receiver volumes are replaced with fresh receiver solution.

[4] = molecular target: QPCTL (Homo sapiens (Human), UniProt Q9NXS2); test: Assay A: biochemical QPCTL activity assay (MALDI-TOF MS); settings: compounds of the invention, Table 2; read-out: Inhibition of QPCTL: IC50
Chain of QPCTL (Q9NXS2 whole entry): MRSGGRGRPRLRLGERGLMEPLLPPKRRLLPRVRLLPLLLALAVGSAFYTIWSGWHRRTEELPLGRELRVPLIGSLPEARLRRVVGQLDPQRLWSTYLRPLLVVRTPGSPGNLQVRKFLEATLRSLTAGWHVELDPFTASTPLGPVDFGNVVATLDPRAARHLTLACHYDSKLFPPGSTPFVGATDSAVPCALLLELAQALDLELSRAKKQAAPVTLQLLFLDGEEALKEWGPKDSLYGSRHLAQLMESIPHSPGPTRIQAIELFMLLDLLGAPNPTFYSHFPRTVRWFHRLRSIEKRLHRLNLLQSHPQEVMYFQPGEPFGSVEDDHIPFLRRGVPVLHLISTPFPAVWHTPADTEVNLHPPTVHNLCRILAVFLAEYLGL
Experimental: (§2) QPCT or QPCTL dependent conversion of N-terminal glutamine to pyroglutamate of CD47 was monitored via MALDI-TOF MS. Test compounds were dissolved in 100% DMSO and serially diluted into clear 1,536-well microtiter plates. Enzymatic reactions were set up in assay buffer containing 20 mM Tris pH 7.5, 0.1 mM TCEP, 0.01% BSA, and 0.001% Tween20. […] The plates were incubated for 10 min in a humidified incubator at 24° C. Subsequently, 2.5 μL of CD47 peptide substrate surrogate (^19[…]^33) was added to each well (final concentration: 10 μM for QPCTL/20 μM for QPCT). The plates were mixed for 30 sec at 1,000 rpm and subsequently incubated for 40 min in a humidified incubator at 24° C. […] The plates were sealed with an adhesive foil, mixed for 30 s at 1,000 rpm and stored at room temperature until preparation of the MALDI target plates. […] QPCT or QPCTL activity was monitored by calculating the ratio between product and internal standard signals followed by normalization to high (100% activity) and low (0% activity) controls. Determination of compound potencies was obtained by fitting the dose-response data to a four-parameter logistical equation.

[5] = molecular target: QPCT (Homo sapiens (Human), UniProt Q16769); test: Assay A: biochemical QPCT activity assay (MALDI-TOF MS); settings: compounds of the invention, Table 2; read-out: Inhibition of QPCT: IC50
Chain of QPCT (Q16769 29-361): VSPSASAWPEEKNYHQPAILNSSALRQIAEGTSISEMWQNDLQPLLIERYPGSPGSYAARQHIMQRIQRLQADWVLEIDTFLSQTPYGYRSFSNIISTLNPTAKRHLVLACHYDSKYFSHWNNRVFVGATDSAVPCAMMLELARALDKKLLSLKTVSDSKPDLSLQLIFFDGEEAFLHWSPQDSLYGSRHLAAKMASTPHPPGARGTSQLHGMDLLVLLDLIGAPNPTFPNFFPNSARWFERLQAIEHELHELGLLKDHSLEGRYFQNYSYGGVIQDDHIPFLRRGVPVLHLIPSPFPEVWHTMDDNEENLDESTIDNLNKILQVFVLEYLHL
Experimental: as §2

[6] = compounds of the invention, Table 4, read-out: Inhibition of SIRα signalling induced by Raji cells: IC50
[7] = compounds of the invention, Table 4, read-out: Inhibition of SIRα signalling induced by A549 cells: IC50
[8] = compounds of the invention, Table 7

Row | Structure (SMILES) | IC50 [1, 6] [nM] | IC50 [2, 7] [nM] | Papp A→B at 2 h [3, 8] [×10⁻⁶ cm/s] | efflux ratio at 2 h [3, 8] | IC50 [4] [nM] | IC50 [5] [nM] | Papp A→B [3, 8] [×10⁻⁶ cm/s] | efflux ratio [3, 8] | IC50 ([1]; prior art compounds, Table 5, read-out: Inhibition of SIRPα signalling induced by Raji cells: IC50) [nM] | IC50 ([2]; prior art compounds, Table 5, read-out: Inhibition of SIRPα signalling induced by A549 cells: IC50) [nM] | Papp A→B at 2 h ([3]; prior art compounds, Table 8) [×10⁻⁶ cm/s]
1 | Cn1cnnc1C1CCN(c2c(C#N)cccc2-c2cnc(F)c(OC(F)F)c2)CC1 [Example 37] | 325 | 113 | 23 | 2 | – | – | – | – | – | – | –
2 | Cn1cnnc1C1CCN(c2c(C#N)cccc2-c2cnn3ncccc23)CC1 [compound 57] | 442 | 244 | – | – | 5 | 11 | 3.9 | 11 | – | – | –
3 | COc1cc(-c2cccc(C#N)c2N2CCC(c3nncn3C)CC2)cnn1 [compound 48] | 446 | 674 | – | – | 7 | 22 | 1.1 | 21.8 | – | – | –
4 | Cc1cc(-c2cccc(C#N)c2N2CCC(c3nncn3C)CC2)cnc1F [compound 5] | 93 | 26 | – | – | 3 | 12 | 23 | 1.6 | – | – | –
5 | Cn1cnnc1C1(F)CCN(c2c(C#N)cccc2-c2cnc3nn(CC(F)F)cc3c2)CC1 [compound 60] | 17 | 16 | – | – | – | 1 | 0.5 | 100 | – | – | –
6 | Cn1cnnc1C1CCN(c2c(C#N)cccc2-c2cnc(F)c(Cl)c2)CC1 [compound 42] | 105 | 72 | – | – | 4 | 24 | 36 | 2 | – | – | –
7 | Cc1c(-c2cccc(C#N)c2N2CCC(c3nncn3C)CC2)cncc1-n1cccn1 [compound 46] | 97 | 71 | – | – | 2 | 13 | 6.8 | 2.5 | – | – | –
8 | Cn1cnnc1C1(F)CCN(c2c(C#N)cccc2-c2ccc(F)nc2)CC1 [compound 56] | 29 | 7 | – | – | 1 | 3 | 50 | 0.7 | – | – | –
9 | Cn1cnnc1C1CCN(c2c(C#N)cccc2-c2ccnnc2)CC1 [compound 32] | 158 | 69 | – | – | 1 | 6 | 0.3 | 28.1 | – | – | –
10 | Cn1cnnc1C1(F)CCN(c2c(C#N)cccc2-c2cnc3nn(C(F)(F)F)cc3c2)CC1 [compound 75] | 7 | 7 | – | – | 1 | 1 | 12 | 4 | – | – | –
11 | Cc1cc(-c2cccc(C#N)c2N2CCC(F)(c3nncn3C)CC2)cnc1F [compound 82] | 63 | 17 | – | – | 2 | 3 | 41 | 1.6 | – | – | –
12 | Cn1cnnc1C1(F)CCN(c2c(C#N)cccc2-c2cnc3ncccc3c2)CC1 [compound 68] | 366 | 274 | – | – | 7 | 13 | 0.6 | 47.5 | – | – | –
13 | Cn1cnnc1C1(F)CCN(c2c(C#N)cccc2-c2cnc3nc(-c4cccc(Cl)c4)ccn23)CC1 [compound 84] | 91 | 63 | – | – | 3 | 6 | 33 | 1.8 | – | – | –
14 | Cn1cnnc1C1CCN(c2c(C#N)cccc2-c2cccnc2)CC1 [compound 67] | 229 | 58 | – | – | 6 | 24 | 5.3 | 7.4 | – | – | –
15 | Cn1nc2cc(-c3cccc(C#N)c3N3CCC(c4nncn4C)CC3)cnc2n1 [compound 45] | 140 | 173 | – | – | 4 | 26 | 0.8 | 31.6 | – | – | –
16 | Cn1cnnc1C1CCN(c2c(C#N)cccc2-c2cnc3nn(C(C)(C)C)cc3c2)CC1 [compound 50] | 21 | 33 | – | – | 1 | 1 | 0.5 | 75.5 | – | – | –

Row | Structure (SMILES) | IC50 [1, 6] [nM] | IC50 [2, 7] [nM] | Papp A→B at 2 h [3, 8] [×10⁻⁶ cm/s] | efflux ratio at 2 h [3, 8] | IC50 [4] [nM] | IC50 [5] [nM] | Papp A→B [3, 8] [×10⁻⁶ cm/s] | efflux ratio [3, 8] | IC50 ([1]; prior art compounds, Table 5, read-out: Inhibition of SIRPα signalling induced by Raji cells: IC50) [nM] | IC50 ([2]; prior art compounds, Table 5, read-out: Inhibition of SIRPα signalling induced by A549 cells: IC50) [nM] | Papp A→B at 2 h ([3]; prior art compounds, Table 8) [×10⁻⁶ cm/s]
17 | Cn1cnnc1C1(F)CCN(c2c(C#N)cccc2-c2cnc3nc(C(C)(C)C)[nH]c3c2)CC1 [compound 69] | 11 | 10 | – | – | – | – | 0.5 | 56.9 | – | – | –
18 | Cn1cnnc1C1CCN(S(=O)(=O)c2cccc(Nc3ccc(F)nc3)c2)CC1 [compound 21, reference compound] | – | – | – | – | – | – | – | – | > 10000 | > 10000 | 0.7
19 | Cn1cnnc1C1CCN(c2c(C#N)cccc2-c2cnc(F)c(OC3CCC3)c2)CC1 [Example 34] | 52 | 25 | 22 | 3.3 | – | – | – | – | – | – | –
20 | Cn1cnnc1C1(F)CCN(c2c(C#N)cccc2-c2cnc(=O)n(C)c2)CC1 [Example 58] | 493 | 249 | < 0.3 | > 4.3 | – | – | – | – | – | – | –
21 | Cn1cnnc1C1CCN(c2c(C#N)cccc2-c2cncc(C(N)=O)c2)CC1 [compound 14] | 761 | – | – | – | 3 | 21 | 0.1 | 50.9 | – | – | –
22 | Cn1cnnc1C1CCN(c2c(C#N)cccc2-c2cnc(F)c(Oc3ccccc3)c2)CC1 [Example 38] | 372 | 98 | 20 | 1.9 | – | – | – | – | – | – | –
23 | Cn1cnnc1C1CCN(c2c(C#N)cccc2-c2ccc(F)nc2)CC1 [Example 1] | – | 9 | 28 | – | – | – | – | – | – | – | –
24 | Cn1cnnc1C1CCN(c2c(C#N)cccc2-c2cncc(OC(F)F)c2)CC1 [compound 23, reference compound] | 1070 | 342 | 10.1 | 7.1 | – | – | – | – | – | – | –
25 | Cn1cnnc1C1(F)CCN(c2c(C#N)cccc2-c2cnc3nn(CC(F)(F)F)cc3c2)CC1 [Example 55] | 38 | 44 | 1.4 | 40 | – | – | – | – | – | – | –
26 | COC(=O)c1cncc(-c2cccc(C#N)c2N2CCC(c3nncn3C)CC2)c1 [compound 27] | 483 | – | – | – | 15 | 100 | 4.4 | 13.4 | – | – | –
27 | Cn1cnnc1C1(C)CCN(c2c(C#N)cccc2-c2cccnc2)CC1 [Example 65] | 1040 | – | 9.8 | 4.9 | – | – | – | – | – | – | –
28 | Cn1cnnc1C1CCN(c2c(C#N)cccc2-c2cnc3nn(C)c(C(F)(F)F)c3c2)CC1 [Example 41] | 88 | 97 | 2.9 | – | – | – | – | – | – | – | –
29 | Cn1cnnc1C1CCN(c2c(C#N)cccc2-c2cncc(CO)c2)CC1 [compound 9] | 309 | – | – | – | 11 | 38 | – | – | – | – | –
30 | Cn1cnnc1C1CCN(c2c(C#N)cccc2-c2cncc(-c3ccccc3)c2)CC1 [compound 21, reference compound] | 1320 | 530 | 33 | 2.8 | – | – | – | – | – | – | –
31 | Cn1cnnc1C1(F)CCN(c2c(C#N)cccc2-c2cnc(O)nc2)CC1 [compound 54] | 851 | 205 | – | – | – | 1 | 0.1 | 11.1 | – | – | –
